# Assay results from patent publication US20070059385A1, “Safe pharmaceutical composition for treating and preventing cancer and method of use” (priority 2005, published 2007).
# Experiments:
# TA97 = experiment: Salmonella mutagenicity assay TA97
# Procedure: (§1) The method for detecting mutagenicity of HHT, with the Salmonella system that detects the reversion of the bacteria from His^− to His^+, is widely used.
# (§2) The bacterial tester strains used for mutagenesis testing are TA97, TA98, TA100 and TA102. Mutagenesis testing method was done as described previously ^[77-88]. In brief, TA97, TA98, TA100 and TA102 were grown in agar gel culture. The petri plats (100×15 mm style) contain 30 ml with 2% glucose. The agar mixture was agitated vigorously and immediately poured into plates of minimal agar. The cultures were incubated at 37° C. in a dark and 5% CO2 in air for 48 hours. After 48 hours the colonies in both test and controls are counted. The presence of a background lawn of bacteria on the histidine-poor soft agar plate was used as an indication that gross toxic effects were absent. Mutagenicity assays were carried out at least in triplicate.
# (§3) The range of spontaneous mutation rates for the individual strains, which were considered to be acceptable, was TA97 (100-170), TA98 (20-40) and TA100 (80-150).
# TA100 = experiment: Salmonella mutagenicity assay TA100
# Procedure: as §1, §2, §3
# [1] = Metabolism (organ and blood radioactivity) of [^3H]-HHT in P388 mice; type: in vivo; details: P388 mice, [^3H]-HHT 1 mg/kg
# Procedure: Animals: Adult DBA/2J male mice, 6 to 8 weeks old. All animals weighed approximately 25 g when used in experiments. Each member of which received identical dosed (i.p.) of HHT.
# Tumor: P388 leukemic cells induced in mice by inoculation with L1210 or P388 leukemic cells ([…]).
# After P388 induced in mice 5 days, 1 mg/kg of [^3H]-HHT (100 μC/mg) was injected to mice. Volumes were 0.01 ml/g body weight. […] The key data of HHT in metabolism process are determined counts per minute (CPM) of [^3H]-HHT in organs. CPM is determined by liquid scintillation counting (LSC). The methods of LSC combined with radioactive of [^3H]-HHT can be determined using a tracer of HHT in organs. After killed animals, organs and blood were obtained from P388 mice. Organs were weighted. 10 mg of organs were digested. 10 ml of scintillation solution (which containing […]) were added to digested solution and determined at LSC. Other processes are similar to the standard method.
# HL-60 cells = experiment: Induction of differentiation (NBT reduction) of human leukemic cells; type: cell-based; details: Mu, GU, MAT, IND 50 ng/ml, higher NBT (%) means higher normal cells
# Procedure: HL-60 cells were established from a patient with acute myeloid leukemia. The cells were cultured in culture flasks with RPMI plus 10% FCS.
# Differentiation of HL-60 cells was assessed by their abilities to produced superoxide as measured by reduction of NBT, by NSE staining and by morphology as detected on cytospin preparations stained with Diff-Quick stain Set, and by analysis of membrane-bound differentiation markers with two-color immunofluorescence. Briefly, cells were preincubated at 4° C. for 60 min in 10% human AB serum and then with FITC-conjugated mouse IgGI isotype control. Analysis of fluorescence was performed on a flow cytometer.
# HL-60 cells were culture in a two-layer soft agar system for 10 days without adding any growth factors as described previously, and colonies were counted using an inverted microscope. The analogues were added to the agar upper layer on day 0. For analysis of the reversibility of inhibition of proliferation, the cells were cultured in suspension culture with and without HHT or other drugs. After 60 hours, the culture flasks were gently jarred to loosen adherent cells, the cells were washed twice in cultured medium containing 10% FCS to remove the test drugs, and then the clonogenic assay was performed. NBT% indicated percentage of normal cells.
structure (smiles),measurement,setting,value
"COC(=O)C[C@](O)(CCCC(C)(C)O)C(=O)O[C@@H]1C(OC)=C[C@]23CCCN2CCc2cc4c(cc2[C@H]13)OCO4 [HHT, Homoharringtonine]",Number of His^+ revertants/plate,"TA97; TA97 +S, 0.1 μg/plate",145 ± 14 revertants/plate
same,Number of His^+ revertants/plate,"TA97; TA97 +S, 1 μg/plate",150 ± 14 revertants/plate
same,Number of His^+ revertants/plate,"TA97; TA97 +S, 10 μg/plate",165 ± 16 revertants/plate
same,Number of His^+ revertants/plate,"TA97; TA97 +S, 100 μg/plate",160 ± 17 revertants/plate
same,Number of His^+ revertants/plate,"TA97; TA97 −S, 0.1 μg/plate",120 ± 10 revertants/plate
same,Number of His^+ revertants/plate,"TA97; TA97 −S, 1 μg/plate",130 ± 11 revertants/plate
same,Number of His^+ revertants/plate,"TA97; TA97 −S, 10 μg/plate",160 ± 16 revertants/plate
same,Number of His^+ revertants/plate,"TA97; TA97 −S, 100 μg/plate",150 ± 16 revertants/plate
same,Number of His^+ revertants/plate,"TA100; TA100 +S, 0.1 μg/plate",158 revertants/plate
same,Number of His^+ revertants/plate,"TA100; TA100 +S, 1 μg/plate",152 revertants/plate
same,Number of His^+ revertants/plate,"TA100; TA100 +S, 10 μg/plate",165 revertants/plate
same,Number of His^+ revertants/plate,"TA100; TA100 +S, 100 μg/plate",160 revertants/plate
same,Number of His^+ revertants/plate,"TA100; TA100 −S, 0.1 μg/plate",148 ± 12 revertants/plate
same,Number of His^+ revertants/plate,"TA100; TA100 −S, 1 μg/plate",140 ± 13 revertants/plate
same,Number of His^+ revertants/plate,"TA100; TA100 −S, 10 μg/plate",162 ± 17 revertants/plate
same,Number of His^+ revertants/plate,"TA100; TA100 −S, 100 μg/plate",158 ± 15 revertants/plate
same,"CMP/mg organ, Bone",[1]; 1 hour,500 CMP/mg organ
same,"CMP/mg organ, Brain",[1]; 1 hour,499 CMP/mg organ
same,"CMP/mg organ, Contents of intestine",[1]; 1 hour,3323 CMP/mg organ
same,"CMP/mg organ, Contents of stomach",[1]; 1 hour,6821 CMP/mg organ
same,"CMP/mg organ, Heart",[1]; 1 hour,1403 CMP/mg organ
same,"CMP/mg organ, Intestine",[1]; 1 hour,1638 CMP/mg organ
same,"CMP/mg organ, Kidney",[1]; 1 hour,6501 CMP/mg organ
same,"CMP/mg organ, Liver",[1]; 1 hour,4145 CMP/mg organ
same,"CMP/mg organ, Lung",[1]; 1 hour,2100 CMP/mg organ
same,"CMP/mg organ, Spleen",[1]; 1 hour,2828 CMP/mg organ
same,"CMP/mg organ, Stomach",[1]; 1 hour,1626 CMP/mg organ
same,"CMP/mg organ, Bone",[1]; 3 hours,560 CMP/mg organ
same,"CMP/mg organ, Brain",[1]; 3 hours,646 CMP/mg organ
same,"CMP/mg organ, Contents of intestine",[1]; 3 hours,7215 CMP/mg organ
same,"CMP/mg organ, Contents of stomach",[1]; 3 hours,84375 CMP/mg organ
same,"CMP/mg organ, Heart",[1]; 3 hours,1800 CMP/mg organ
same,"CMP/mg organ, Intestine",[1]; 3 hours,3288 CMP/mg organ
same,"CMP/mg organ, Kidney",[1]; 3 hours,3121 CMP/mg organ
same,"CMP/mg organ, Liver",[1]; 3 hours,6718 CMP/mg organ
same,"CMP/mg organ, Lung",[1]; 3 hours,2427 CMP/mg organ
same,"CMP/mg organ, Spleen",[1]; 3 hours,2426 CMP/mg organ
same,"CMP/mg organ, Stomach",[1]; 3 hours,2321 CMP/mg organ
same,"CMP/mg organ, Bone",[1]; 6 hours,505 CMP/mg organ
same,"CMP/mg organ, Brain",[1]; 6 hours,793 CMP/mg organ
same,"CMP/mg organ, Contents of intestine",[1]; 6 hours,6250 CMP/mg organ
same,"CMP/mg organ, Contents of stomach",[1]; 6 hours,100719 CMP/mg organ
same,"CMP/mg organ, Heart",[1]; 6 hours,1193 CMP/mg organ
same,"CMP/mg organ, Intestine",[1]; 6 hours,2475 CMP/mg organ
same,"CMP/mg organ, Kidney",[1]; 6 hours,3501 CMP/mg organ
same,"CMP/mg organ, Liver",[1]; 6 hours,4109 CMP/mg organ
same,"CMP/mg organ, Lung",[1]; 6 hours,1788 CMP/mg organ
same,"CMP/mg organ, Spleen",[1]; 6 hours,2198 CMP/mg organ
same,"CMP/mg organ, Stomach",[1]; 6 hours,3703 CMP/mg organ
same,"CMP/mg organ, Bone",[1]; 24 hours,480 CMP/mg organ
same,"CMP/mg organ, Brain",[1]; 24 hours,986 CMP/mg organ
same,"CMP/mg organ, Contents of intestine",[1]; 24 hours,5009 CMP/mg organ
same,"CMP/mg organ, Contents of stomach",[1]; 24 hours,117914 CMP/mg organ
same,"CMP/mg organ, Heart",[1]; 24 hours,893 CMP/mg organ
same,"CMP/mg organ, Intestine",[1]; 24 hours,1067 CMP/mg organ
same,"CMP/mg organ, Kidney",[1]; 24 hours,1065 CMP/mg organ
same,"CMP/mg organ, Liver",[1]; 24 hours,2175 CMP/mg organ
same,"CMP/mg organ, Lung",[1]; 24 hours,1312 CMP/mg organ
same,"CMP/mg organ, Spleen",[1]; 24 hours,2156 CMP/mg organ
same,"CMP/mg organ, Stomach",[1]; 24 hours,1823 CMP/mg organ
same,NBT (%),HL-60 cells,65 ± 7.0 %
